Experimental data: patent US20140072613A1, “Compositions and Methods for Treating Cutaneous Scarring” (priority 2012, published 2014)
pIC50: −log10 of the molar value. Where no end group is shown, it is not given here.

Tests used:
[1] = system: 266 human kinases; assay: biochemical; assay type: biochemical; conditions: at 100 μM
From the text: (§1) Specifically, in these assays, a positively charged substrate is phosphorylated with a radiolabeled phosphate group from an ATP if the kinase is not inhibited by an inhibitor peptide. The positively charged substrate then is attracted to a negatively charged filter membrane, quantified with a scintillation counter, and compared to a 100% activity control.

[2] = system: hypertrophic scarring induced by mechanical loading; assay: Mouse model of hypertrophic scarring induced by mechanical loading: scar area, gross and histological; assay type: in vivo; conditions: 50 μg/kg intraperitoneal daily day 0 through day 14
Experimental: Dorsal skins were distracted laterally along both sides of the wound edge by a distraction rate of 1 mm/day from day 4 to day 7, and then 2 mm/day from day 8 to day 14. […] At day 14, skin wounds were photographed digitally, and scar areas were measured by Image J software. Tissue was harvested for RNA extraction, Florescence-Activated Cell Sorting (FACS) analysis, and histological examination.
Digital photographs were taken on the day of surgery and every two days thereafter. Gross scar appearance was assessed by tracing the wound margin and calculating the hypertrophic scar area.
Scar samples from each mouse were fixed in 10% formalin and embedded in paraffin. Sections were made and stained with hematoxylin and eosin (H&E) to assess scar tissue deposition. […] Scar areas were outlined, and areas were measured by using Image J software. Scale bar=100 μm.

[3] = target: TrkB (h) (Homo sapiens, UniProt Q16620); assay: Millipore radiometric kinase assay (IC50 Profiler Express / kinase profiling); assay type: biochemical
From the text: as §1

[4] = target: MAPKAP-K3 (h) (Homo sapiens, UniProt Q16644); assay: as above; assay type: biochemical
From the text: as §1

[5] = target: MAPKAP-K2 (h) (Homo sapiens, UniProt P49137); assay: as above; assay type: biochemical
From the text: as §1

[6] = target: T1, DRAK1 (h) (Homo sapiens, UniProt Q9UEE5); assay: Millipore radiometric kinase assay (IC50 Profiler Express); assay type: biochemical
T1 sequence (Q9UEE5 1-414): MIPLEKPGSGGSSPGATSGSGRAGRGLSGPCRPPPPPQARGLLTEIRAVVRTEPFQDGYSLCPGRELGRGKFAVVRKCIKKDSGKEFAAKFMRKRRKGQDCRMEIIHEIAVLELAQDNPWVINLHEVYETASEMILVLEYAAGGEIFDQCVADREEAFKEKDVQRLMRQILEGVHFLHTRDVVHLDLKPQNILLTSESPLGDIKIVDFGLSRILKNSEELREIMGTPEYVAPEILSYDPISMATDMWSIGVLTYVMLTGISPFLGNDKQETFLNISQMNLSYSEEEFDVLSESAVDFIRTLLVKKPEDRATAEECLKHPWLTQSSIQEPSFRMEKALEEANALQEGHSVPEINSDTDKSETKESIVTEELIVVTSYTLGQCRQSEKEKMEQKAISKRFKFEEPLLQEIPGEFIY
From the text: as §1

[7] = target: EGFR (L861Q) (h) (Homo sapiens, UniProt P00533, L861Q); assay: as above; assay type: biochemical
From the text: as §1

[8] = target: LOK (h) (Homo sapiens, UniProt O94804); assay: as above; assay type: biochemical
From the text: as §1

[9] = target: T2, DMPK (h) (Homo sapiens, UniProt Q09013); assay: as above; assay type: biochemical
T2 sequence (Q09013 1-629): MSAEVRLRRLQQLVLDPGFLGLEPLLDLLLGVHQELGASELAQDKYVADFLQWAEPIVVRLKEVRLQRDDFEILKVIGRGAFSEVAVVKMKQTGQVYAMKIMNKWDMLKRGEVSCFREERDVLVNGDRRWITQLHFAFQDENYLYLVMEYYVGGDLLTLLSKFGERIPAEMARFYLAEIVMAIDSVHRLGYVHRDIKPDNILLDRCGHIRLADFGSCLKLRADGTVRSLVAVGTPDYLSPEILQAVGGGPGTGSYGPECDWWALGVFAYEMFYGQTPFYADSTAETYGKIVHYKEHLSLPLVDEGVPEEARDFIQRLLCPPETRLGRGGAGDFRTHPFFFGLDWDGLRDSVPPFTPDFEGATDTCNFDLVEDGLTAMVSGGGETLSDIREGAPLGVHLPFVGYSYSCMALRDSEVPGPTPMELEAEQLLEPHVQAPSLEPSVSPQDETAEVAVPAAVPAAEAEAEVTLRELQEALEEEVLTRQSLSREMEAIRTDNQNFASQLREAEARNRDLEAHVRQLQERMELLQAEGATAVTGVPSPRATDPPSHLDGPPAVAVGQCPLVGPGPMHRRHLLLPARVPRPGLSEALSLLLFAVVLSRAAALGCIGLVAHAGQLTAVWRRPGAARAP
From the text: as §1

[10] = target: FGFR2 (h) (Homo sapiens, UniProt P21802); assay: biochemical
From the text: as §1

[11] = target: Pim-1 (h) (Homo sapiens, UniProt P11309); assay: biochemical
From the text: as §1

[12] = target: Yes (h) (Homo sapiens, UniProt P07947); assay: biochemical
From the text: as §1

[13] = target: CaMK1δ (h) (Homo sapiens, UniProt Q8IU85); assay: biochemical
From the text: as §1

[14] = target: EphA2 (h) (Homo sapiens, UniProt P29317); assay: biochemical
From the text: as §1

[15] = target: Fgr (h) (Homo sapiens, UniProt P09769); assay: biochemical
From the text: as §1

[16] = target: Fes(h) (Homo sapiens, UniProt P07332); assay: biochemical
From the text: as §1

[17] = target: CaMKI (h) (Homo sapiens, UniProt Q14012); assay: biochemical
From the text: as §1

[18] = target: MSK1 (h) (Homo sapiens, UniProt O75582); assay: biochemical
From the text: as §1

[19] = target: 266 human kinases (Homo sapiens, UniProt Q9H1R3); assay: biochemical; assay type: biochemical; conditions: MLCK(h); 100 μM
From the text: as §1

[20] = target: T3, Neurokinin 2 (Homo sapiens, UniProt P21452); assay: Cerep binding assay (radiolabelled ligand competition)
T3 construct: Cerep
Experimental: (§2) Each binding assay was performed in 6-control wells with or without vehicle plus an 8-point dose-response of the relevant reference compound.

[21] = target: T4, Melanocortin 4 (Homo sapiens, UniProt P32245); assay: as above
T4 construct: Cerep
Experimental: as §2

[22] = target: T5, Serotonin 2A (Homo sapiens, UniProt P28223); assay: as above
T5 construct: Cerep
Experimental: as §2

[23] = system: Ca^2+/calmodulin-dependent protein kinase II (CaMKII); conditions: cited from earlier work
[24] = system: PKA; conditions: AIP 1 μM; cited from earlier work
[25] = system: PKC; conditions: AIP 1 μM; cited from earlier work
[26] = target: CaMKIV (Homo sapiens, UniProt Q16566); conditions: AIP 1 μM; cited from earlier work
[27] = read-out: % Activity of off-target receptor

T5 sequence (P28223 whole entry): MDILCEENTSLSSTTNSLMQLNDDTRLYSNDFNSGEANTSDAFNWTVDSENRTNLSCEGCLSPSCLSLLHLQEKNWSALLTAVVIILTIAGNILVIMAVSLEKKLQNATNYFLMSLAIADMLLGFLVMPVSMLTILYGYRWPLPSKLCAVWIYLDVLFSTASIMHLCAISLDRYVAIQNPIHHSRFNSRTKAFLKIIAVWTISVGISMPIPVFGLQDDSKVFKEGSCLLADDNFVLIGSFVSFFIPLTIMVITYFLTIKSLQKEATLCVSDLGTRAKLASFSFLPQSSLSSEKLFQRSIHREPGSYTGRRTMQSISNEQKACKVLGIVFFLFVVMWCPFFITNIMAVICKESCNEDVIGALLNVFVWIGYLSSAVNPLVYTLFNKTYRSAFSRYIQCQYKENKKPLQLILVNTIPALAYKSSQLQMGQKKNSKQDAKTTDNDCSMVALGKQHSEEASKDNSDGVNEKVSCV
MAPKAP-K3 (h), sequence (Q16644 whole entry): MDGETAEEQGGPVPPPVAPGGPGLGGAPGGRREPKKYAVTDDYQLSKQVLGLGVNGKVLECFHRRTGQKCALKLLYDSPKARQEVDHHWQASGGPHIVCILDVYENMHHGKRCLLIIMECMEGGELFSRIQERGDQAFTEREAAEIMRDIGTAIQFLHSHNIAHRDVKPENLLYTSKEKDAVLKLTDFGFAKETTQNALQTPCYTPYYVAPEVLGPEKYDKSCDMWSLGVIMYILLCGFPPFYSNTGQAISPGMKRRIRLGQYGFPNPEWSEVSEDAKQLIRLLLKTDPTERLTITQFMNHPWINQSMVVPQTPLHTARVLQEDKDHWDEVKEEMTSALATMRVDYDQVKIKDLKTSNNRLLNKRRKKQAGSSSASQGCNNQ
T3 sequence (P21452 whole entry): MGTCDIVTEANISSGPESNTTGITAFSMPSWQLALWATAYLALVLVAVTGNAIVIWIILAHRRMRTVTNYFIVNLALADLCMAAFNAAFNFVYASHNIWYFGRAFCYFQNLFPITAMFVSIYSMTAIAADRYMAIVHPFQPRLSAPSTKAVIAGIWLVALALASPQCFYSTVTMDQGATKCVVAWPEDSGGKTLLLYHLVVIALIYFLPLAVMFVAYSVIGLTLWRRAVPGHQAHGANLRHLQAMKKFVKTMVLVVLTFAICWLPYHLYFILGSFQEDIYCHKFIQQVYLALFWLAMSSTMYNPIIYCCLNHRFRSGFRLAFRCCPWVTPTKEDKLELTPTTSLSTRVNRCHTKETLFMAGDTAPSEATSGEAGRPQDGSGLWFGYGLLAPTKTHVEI
T4 sequence (P32245 whole entry): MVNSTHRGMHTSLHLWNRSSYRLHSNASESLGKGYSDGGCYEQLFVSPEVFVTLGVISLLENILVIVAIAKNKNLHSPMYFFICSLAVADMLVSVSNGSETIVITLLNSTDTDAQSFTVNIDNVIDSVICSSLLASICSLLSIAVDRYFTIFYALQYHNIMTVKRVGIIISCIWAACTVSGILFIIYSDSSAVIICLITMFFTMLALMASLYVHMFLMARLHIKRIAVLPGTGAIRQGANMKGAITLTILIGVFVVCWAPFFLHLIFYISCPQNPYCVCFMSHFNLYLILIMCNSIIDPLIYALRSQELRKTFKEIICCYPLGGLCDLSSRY
MAPKAP-K2 (h), sequence (P49137 whole entry): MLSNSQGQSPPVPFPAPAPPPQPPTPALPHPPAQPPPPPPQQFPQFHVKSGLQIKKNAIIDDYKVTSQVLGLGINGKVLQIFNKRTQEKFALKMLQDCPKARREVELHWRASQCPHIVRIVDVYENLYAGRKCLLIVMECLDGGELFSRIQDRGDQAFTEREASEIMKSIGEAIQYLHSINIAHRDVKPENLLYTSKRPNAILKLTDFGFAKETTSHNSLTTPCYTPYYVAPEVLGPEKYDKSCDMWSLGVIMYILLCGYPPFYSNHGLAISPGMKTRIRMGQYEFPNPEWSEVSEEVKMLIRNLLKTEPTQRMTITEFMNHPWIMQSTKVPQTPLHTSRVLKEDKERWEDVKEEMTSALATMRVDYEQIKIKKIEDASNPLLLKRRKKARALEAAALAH
CaMKI (h), sequence (Q14012 whole entry): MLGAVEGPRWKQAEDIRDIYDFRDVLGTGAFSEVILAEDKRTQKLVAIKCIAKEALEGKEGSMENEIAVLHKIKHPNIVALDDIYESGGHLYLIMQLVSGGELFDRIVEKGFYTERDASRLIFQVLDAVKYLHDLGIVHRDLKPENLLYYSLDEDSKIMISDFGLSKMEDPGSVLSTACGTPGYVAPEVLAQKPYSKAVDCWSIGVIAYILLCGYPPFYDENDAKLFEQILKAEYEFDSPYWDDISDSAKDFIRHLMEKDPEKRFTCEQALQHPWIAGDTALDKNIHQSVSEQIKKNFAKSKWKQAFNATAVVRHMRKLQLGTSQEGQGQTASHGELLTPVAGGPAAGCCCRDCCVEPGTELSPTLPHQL
TrkB (h), sequence (Q16620 32-822): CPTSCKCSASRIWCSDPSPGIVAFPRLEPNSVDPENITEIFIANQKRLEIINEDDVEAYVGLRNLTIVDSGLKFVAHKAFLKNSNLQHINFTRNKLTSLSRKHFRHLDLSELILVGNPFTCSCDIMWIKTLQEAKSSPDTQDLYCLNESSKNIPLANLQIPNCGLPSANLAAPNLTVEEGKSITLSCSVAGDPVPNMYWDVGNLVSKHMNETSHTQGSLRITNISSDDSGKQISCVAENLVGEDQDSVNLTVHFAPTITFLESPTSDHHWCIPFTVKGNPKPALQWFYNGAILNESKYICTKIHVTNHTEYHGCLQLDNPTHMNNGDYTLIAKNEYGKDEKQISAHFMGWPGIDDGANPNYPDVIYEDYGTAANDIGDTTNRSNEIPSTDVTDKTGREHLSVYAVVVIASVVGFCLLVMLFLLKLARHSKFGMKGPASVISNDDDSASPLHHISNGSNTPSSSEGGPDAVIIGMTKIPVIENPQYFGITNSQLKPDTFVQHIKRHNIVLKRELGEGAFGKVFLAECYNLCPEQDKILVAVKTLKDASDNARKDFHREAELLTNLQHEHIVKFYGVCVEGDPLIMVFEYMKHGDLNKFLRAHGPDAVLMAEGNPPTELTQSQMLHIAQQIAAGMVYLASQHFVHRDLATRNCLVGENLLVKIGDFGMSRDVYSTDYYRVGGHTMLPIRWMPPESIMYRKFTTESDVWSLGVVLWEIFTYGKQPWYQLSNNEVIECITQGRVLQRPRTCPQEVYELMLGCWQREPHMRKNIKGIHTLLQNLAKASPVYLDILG
EGFR (L861Q) (h), sequence (P00533 25-1210 L861Q): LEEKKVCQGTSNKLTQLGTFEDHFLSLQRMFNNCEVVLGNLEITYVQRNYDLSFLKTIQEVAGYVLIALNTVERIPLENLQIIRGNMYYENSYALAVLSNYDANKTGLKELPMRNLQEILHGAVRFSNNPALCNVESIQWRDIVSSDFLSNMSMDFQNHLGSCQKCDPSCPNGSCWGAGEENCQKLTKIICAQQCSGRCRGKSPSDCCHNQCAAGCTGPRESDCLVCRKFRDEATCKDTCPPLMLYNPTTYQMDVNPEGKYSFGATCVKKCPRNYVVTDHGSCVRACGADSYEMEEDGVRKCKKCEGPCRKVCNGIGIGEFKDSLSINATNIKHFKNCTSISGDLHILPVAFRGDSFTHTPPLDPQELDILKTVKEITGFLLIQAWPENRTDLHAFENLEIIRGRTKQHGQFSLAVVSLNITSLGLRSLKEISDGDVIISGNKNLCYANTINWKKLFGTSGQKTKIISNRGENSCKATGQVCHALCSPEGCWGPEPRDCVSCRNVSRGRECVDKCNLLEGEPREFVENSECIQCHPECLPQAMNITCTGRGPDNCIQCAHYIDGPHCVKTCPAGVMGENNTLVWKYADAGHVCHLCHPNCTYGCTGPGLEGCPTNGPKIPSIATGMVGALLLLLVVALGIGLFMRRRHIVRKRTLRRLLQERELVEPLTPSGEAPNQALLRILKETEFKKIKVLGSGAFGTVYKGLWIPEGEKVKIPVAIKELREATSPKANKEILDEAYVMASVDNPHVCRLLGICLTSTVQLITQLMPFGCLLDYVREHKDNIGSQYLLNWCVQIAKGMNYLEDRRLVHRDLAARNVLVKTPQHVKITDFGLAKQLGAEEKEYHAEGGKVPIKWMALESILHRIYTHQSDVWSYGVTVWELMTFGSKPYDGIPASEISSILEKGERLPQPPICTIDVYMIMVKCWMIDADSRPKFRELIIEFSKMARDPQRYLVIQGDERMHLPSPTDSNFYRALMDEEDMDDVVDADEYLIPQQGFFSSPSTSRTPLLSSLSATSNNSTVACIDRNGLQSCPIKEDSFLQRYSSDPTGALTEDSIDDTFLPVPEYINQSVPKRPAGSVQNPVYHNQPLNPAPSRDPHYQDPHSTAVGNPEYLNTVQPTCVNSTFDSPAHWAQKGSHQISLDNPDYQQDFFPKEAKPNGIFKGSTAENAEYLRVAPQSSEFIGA
266 human kinases (Homo sapiens, UniProt Q9H1R3), sequence (Q9H1R3 whole entry): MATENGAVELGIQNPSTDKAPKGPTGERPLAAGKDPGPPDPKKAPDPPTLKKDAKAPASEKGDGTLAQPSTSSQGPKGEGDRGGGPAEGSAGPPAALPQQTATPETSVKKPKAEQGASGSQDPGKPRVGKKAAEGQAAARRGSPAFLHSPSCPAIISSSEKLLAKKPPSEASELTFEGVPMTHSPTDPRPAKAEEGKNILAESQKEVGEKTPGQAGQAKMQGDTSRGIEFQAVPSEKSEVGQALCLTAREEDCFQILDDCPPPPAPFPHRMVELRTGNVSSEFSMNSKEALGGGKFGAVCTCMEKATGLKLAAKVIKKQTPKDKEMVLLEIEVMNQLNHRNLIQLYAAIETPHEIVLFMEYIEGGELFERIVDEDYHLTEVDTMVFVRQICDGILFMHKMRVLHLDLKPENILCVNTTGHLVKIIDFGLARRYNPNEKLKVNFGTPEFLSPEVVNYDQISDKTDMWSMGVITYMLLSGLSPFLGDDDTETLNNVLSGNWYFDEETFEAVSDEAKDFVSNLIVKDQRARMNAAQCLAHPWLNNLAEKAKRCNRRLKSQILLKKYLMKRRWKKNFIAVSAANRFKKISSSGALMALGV

With FAKLAARLYRKALARQLGVAA [MMI-0300] the off-target kinase inhibition [1] was “very limited off-target kinase inhibition” and the “gross scar appearance vs PBS-treated control mouse” value [2] was “less inflammation and less scar formation”.

In the case of KAFAKLAARLYRKALARQLGVAA [MMI-0400], the off-target kinase inhibition [1] was “very limited off-target kinase inhibition”.

In the case of YARAAARQARAKALARQLGVAA [MMI-0100], the pIC50 [3] was 5.34, the inhibition at 100 µM ([3]; at 100 μM, in vitro) was greater than 65% and the pIC50 [4] was 4.80. The inhibition at 100 µM ([4]; at 100 μM, in vitro, read-out: inhibition of kinase activity of MK3) was greater than 65%, the pIC50 [5] was 4.92 and the inhibition at 100 µM ([5]; at 100 μM, in vitro, read-out: inhibition of kinase activity of MK2) was greater than 65%. It also gave a pIC50 [6] of 4.11, a pIC50 [7] of 3.89 and a pIC50 [8] of 4.32. For the same substance, the pIC50 [9] was 4.47, the pIC50 [10] was 3.76 and the pIC50 [11] was 4.14. The pIC50 [12] was 3.94, the pIC50 [13] was 4.34 and the pIC50 [14] was 3.74. The pIC50 [15] was 3.85, the pIC50 [16] was 3.76 and the pIC50 [17] was 4.93. The inhibition at 100 µM ([17]; read-out: inhibition of kinase activity of CaMKI) was greater than 65%, the pIC50 [18] was 3.99 and the activity at 100 µM [19] was 85%. The “inhibition of off-target protein” value ([20]; concentration not given) was “less than 30%”, the activity at 100 µM [20, 27] was 85% and the “inhibition of off-target protein” value ([21]; concentration not given) was “less than 30%”. For the same substance, the activity at 100 µM [21, 27] was 81%, the “inhibition of off-target protein” value ([22]; concentration not given) was “less than 30%” and the activity at 100 µM [22, 27] was 86%.

In the case of “autocamtide-2 related inhibitory peptide [AIP]”, the CaMKII activity ([23]; AIP 1 μM) is given as “inhibited completely”, the pIC50 [23] is given as 7.00 and the PKA activity [24] is given as “not affected”. The PKC activity [25] was “not affected” and the CaMKIV activity [26] was “not affected”.
